Assay results taken from patent US20260207551A1, “PHOSPHOGLICERATE DEHYDROGENASE INHIBITORS FOR THE TREATMENT OF FIBROSIS” (CHIESI FARMACEUTICI S.P.A., priority 2022, published 2026).

What was measured:
[1] = test system: collagen I (Col-I); experiment: TGF-b induced Collagen I expression in NHLFs (Western blot); format: cell-based, Human; conditions: NHLF
Text: (§1) The antifibrotic activity of compounds of the present invention has been monitored measuring the expression of fibrotic mediators, collagen I (Col-I) and alpha smooth muscle actin (α-SMA) after treatment in lung cells with TGF-β in comparison with Nintedanib (see Frank Hilberg et al, Cancer Res 2008 Jun. 15; 68(12):4774-82), and allosteric inhibitor NCT-503 (see Hamanaka et al., Am J Respir Cell Mol Biol. 2018 May; 58(5):585-593).
(§2) Human normal lung fibroblasts (NHLFs) were purchased from Lonza (Basel, Switzerland). NHFLs were cultured in Eagle's Minimum Essential medium (EMEM) w/o serine and glycine, supplemented with 10% Fetal Bovine Serum (FBS), antibiotics (50 U/ml penicillin and 0.05 mg/ml streptomycin) and 2 mM L-glutamine, in an atmosphere of 95% air and 5% CO2 at 37° C. NHLFs cultures were used between passage 1 and 9. Before all the experiments, cells were incubated overnight in serum-free medium.
NHLFs were seeded in 12-well plates at cultured until 70% of confluency. To examine the expression of fibrotic markers, cells were treated with different concentrations of Compounds and NCT-503 in EMEM medium for 1 h followed by stimulation with TGF-β for 48 h at 37° C., 5% CO2. […] Detection and quantification were performed with Odyssey imaging system (Li-cor) using GAPDH as loading control.

[2] = test system: alpha smooth muscle actin (α-SMA); experiment: TGF-b induced α-SMA expression in NHLFs (Western blot); format: cell-based, Human; conditions: NHLF, TGF-β (10 ng/ml) 48 h
Text: as §1, §2
NHLFs were seeded in 12-well plates at cultured until 70% of confluency. To examine the expression of fibrotic markers, cells were treated with different concentrations of Compounds and NCT-503 in EMEM medium for 1 h followed by stimulation with TGF-β for 48 h at 37° C., 5% CO2. Following cell treatments, medium was removed and whole cell extracts were prepared by directly adding to the well the 1× loading buffer (125 mM Tris-HCl pH 6.8, 4% SDS, 0.2% Orange G, 50% glycerol, 2.5% β-mercaptoethanol, Li-cor Biosciences), boiled for 5 min and then electrophoresed on Mini protean TGX gel 4-12% (Biorad). After electrophoresis, proteins were transferred to a nitrocellulose membrane. Immunodetection of Col-I, α-SMA and glyceraldeide 3-phosphate dehydrogenase (GAPDH) were obtained by using mouse anti-CollA1 (Santacruz), mouse anti-α-SMA (sigma) and rabbit anti-GAPDH (Cell Signaling Technology) all diluted at 1:1000 in TBS-tween 0.1%. […] Detection and quantification were performed with Odyssey imaging system (Li-cor) using GAPDH as loading control.

[3] = test system: NHLFs; experiment: FBS induced proliferation of NHLFs (BrdU incorporation); format: cell-based, Human
Method: as §2
The antiproliferative activity of compounds of the present invention has been monitored measuring the incorporation of bromodeoxyuridine (BrdU), a thymidine analog of DNA, in newly synthesized DNA after treatment in lung cells. Briefly, NHLFs were seeded in 96-well and treated with different concentrations of Compound 19 and NCT-503 in EMEM medium for 1 h followed by stimulation with Fetal Bovine Serum (FBS) for 72 h at 37° C., 5% CO2. After cell treatments, 10 μl/well BrdU labeling solution was added for incorporation in proliferating cells for 2 h at 37° C., 5% CO2. After removing the culture medium, the cells are fixed, and the DNA is denatured by adding FixDenat followed by incubation with 100 μl/well Anti-BrdU-POD for detection. The reaction product is quantified by measuring the absorbance at the respective wavelength using a scanning multiwell spectrophotometer (ELISA reader).

[4] = test system: bleomycin-induced pulmonary fibrosis; experiment: Bleomycin-induced pulmonary fibrosis in male mice (Example 5)
Method: Male C57BL6/J mice (7-8 weeks old) were purchased from the Envigo RMS (San Pietro al Natisone (UD), Italy). All mice were maintained under pathogen-free conditions and were provided food and water ad libitum.
Lung injury was induced by double oropharyngeal instillation of Bleomycin hydrochloride (BLM, BAXTER) at day 0 and day 4 at the doses of 0.02 U/mouse in 50 μl of saline solution (0.9%). Control animals received double oropharyngeal instillation of 50 μl of saline solution.
Compound 19 was orally administered twice daily, starting on day 7 after the first oropharyngeal administration of bleomycin at the two doses of 400 and 600 mg/kg/day, 10 ml/kg, dissolved in 0.5% Tween 80, 0.5% Methylcellulose in H2O and treatment lasted for two weeks.
A group of animals was treated with Nintedanib esylate salt, at the dose of 60 mg/kg/day, 10 ml/kg, once daily, to compare the efficacy of the test compounds with an FDA approved drug for the treatment of IPF patients. Control mice were given vehicle-only over the same time intervals. Weight of all animals has been assessed twice a week starting from day 0 until day 21.
On days 21, mice were anesthetized by intraperitoneal injection of thiopental (200 mg/kg/10 ml; pentothal sodium, MSD Animal Health Srl). Blood was withdrawn by cardiac puncture and collected in heparine tubes. Plasma was obtained after centrifugation of blood at 10,000 g for 10 min. Lungs were lavage with saline solution through the heart, formalin fixed and paraffin embedded, and sections were stained with Masson's Trichrome to evaluate the grade and severity of fibrosis and collagen deposition.
Masson's Trichrome stained slides were also scanned with NanoZoomer S60 (Hamamatsu Photonics K.K., Shizuoka, Japan) and acquired into the Visiopharm Integrator System (VIS; version 2017.2.4.3387) for a quantification of pulmonary fibrosis by automated analysis with the support of a VIS Analysis Protocol Package (APP). The present APP has been designed to identify and then quantify the fibrotic tissue, detecting accumulation of altered connective tissue, excess of collagen deposition and cellular density.
To quantify lung protein content and the levels of specific proteins as markers of fibrosis and collagen deposition, lungs from subgroups of animals were weighted, homogenized in Phosphate buffer solution (PBS) and proteins of interest were quantified by immunometric or colorimetric assays. Hydroxyproline content was determined using the Hydroxyproline Colorimetric Assay Kit (Sigma MAK008, USA) according to the manufacturer's protocol. WISP-1, CollagenI, pro-CollagenI and Elastin were determined by Elisa kits. Protein quantification was performed using DC Protein Assay (Bio-Rad Laboratories, Italy). Plasma serine levels were measured using the DL-Serine Assay Kit (Abcam, Cambridge, MA).

CC(C)C(C(=O)O)c1ccc(C2(NC(=O)c3cc4c(Cl)c(Cl)ccc4n3C)CCOC2)cc1 (racemic) [Compound 19, (±)-2-(4-(3-(4,5-Dichloro-1-methyl-1H-indole-2-carboxamido)tetrahydro-furan-3-yl)phenyl)-3-methylbutanoic acid]
IC50 ([1]; Homo sapiens, TGF-β 48 h, confidence interval in brackets, read-out: TGF-b induced Collagen I (pIC50-C.I.) (converted)): 31.6 nM
FMT induced by TGF-β, Collagen protein expression (FIG. 1) [1]: decrease of Collagen protein expression
inhibition of release of α-SMA (comparison, FIG. 2) ([2]; Compound 19 50 uM vs NCT-503 50 uM and Nintedanib 1 uM): in a more efficacious manner than the NCT-503 (50 uM) and even more than the Nintedanib (1 uM)
inhibition at 50 µM ([2]; Homo sapiens, 50 uM, read-out: TGF-b induced a-sma (% inh. 50 uM)): 97%
IC50 ([3]; Homo sapiens, NHLF, FBS 72 h, confidence interval in brackets, NA: not active, read-out: FBS induced proliferation (pIC50-C.I.) (converted)): 631 nM
cell proliferation induced by serum treatment (FIG. 3) ([3]; NHLFs, 72 h): able to reduce the cell proliferation
circulating serine levels in plasma ([4]; 400 and 600 mg/kg/day): significant reduction at both doses
reduction of lung/body weight ([4]; Compound 19 highest dose (600 mg/kg/day), Nintedanib esylate 60 mg/kg/day, not significant): −31%
body weight during 2-weeks of treatment ([4]; compared to BLM/Vehicle treated group): did not lose additional weight
Ashcroft score (FIG. 11A) ([4]; day 21): reduced
collagen content (automatic collagen deposition quantification, FIG. 13) ([4]; day 21): reached statistical significance with the highest dose
frequency of Ashcroft score classes (FIG. 11B) ([4]; day 21): reduced the frequency of the most severe scores of fibrosis
reduction of tissue area occupied by fibrotic lesions (automated analysis) ([4]; day 21): ~25%
severity of fibrosis (automated analysis, FIG. 12) ([4]; day 21): significant reduction of severity of fibrosis
deaths during treatment ([4]; highest tested dose (600 mg/kg/day), two animals died in BLM/Vehicle group): only one animal died
lung levels of Hydroxyproline, Collagen I and WISP-1 ([4]; lung homogenates): significantly reduced
